From PubChem BioAssay AID489006 (Sanford-Burnham Center for Chemical Genomics, 2010)
The source made the active and inactive calls. The rule behind the calls is not given here.

What follows are compounds tested on Jurkat NF-kB reporter, luminescence (assay: NF-kB reporter inhibition in Jurkat cells, dose response, selectivity assay for B-cell receptor NF-kB inhibitor project, cell-based, luminescence (AID 489006)).
`CC1(C)CC2CC(C)(CN2S(=O)(=O)c2ccc(C(=O)Nc3ccc(S(=O)(=O)N4CCOCC4)cc3)cc2)C1` (stereo not drawn) was tested, and the IC50 was > 80 µM (inactive).
`CC(C)(C)c1ccc(-c2noc(CCC(=O)N3CCOCC3)n2)cc1` was tested, and the IC50 was > 80 µM (inactive).
With `Cc1cc(=O)[nH]c2c(C)cc(S(=O)(=O)N3CCCCC3)cc12` the IC50 was > 80 µM (inactive).
In the case of `C=C1C(=O)[C@@]23C[C@H]4[C@@H]5[C@@]6(C)CCC[C@@]57[C@@H]2[C@@H](O)[C@@H]1C[C@H]3[C@H]7N4C6`, the IC50 is reported as 2.85 µM.
In the case of `COc1cccc(/C=C2\SC(=S)N(CCCC(=O)NC3=NCCS3)C2=O)c1`, the IC50 is reported as 25.9 µM (inactive).
For `COc1cc(-c2nc(C(=O)NCC3CCCO3)cc3c2[nH]c2ccccc23)cc(OC)c1OC` (stereo not drawn), the IC50 was 18 µM.
With `COc1ccc(-c2nsc(SCC(=O)Nc3cc(C)on3)n2)cc1` the IC50 was > 80 µM (inactive).
In the case of `CCOc1ccc(/C=C2\SC(=S)N(CCC(=O)Nc3cccc(C(=O)O)c3)C2=O)cc1`, the IC50 is reported as > 80 µM (inactive).
With `CC(C)(C)c1ccc(-n2ncc3c2CCCC3NC(=O)C2(C(N)=O)CC2)cc1` (stereo not drawn) the IC50 was > 80 µM (inactive).
`CC(C)(C)c1ccc(-c2noc(CCC(=O)Nc3cccnc3)n2)cc1` was tested, and the IC50 was < 0.16 µM.
With `C/C(=N\Nc1nc(Nc2ccccc2)nc(N2CCOCC2)n1)c1cccs1` the IC50 was > 80 µM (inactive).
For `COc1ccccc1/C=C1\SC(=S)N(CCC(=O)Nc2cccc(O)c2)C1=O`, the IC50 was > 80 µM (inactive).
In the case of `Cc1cc(OCC(=O)NC2CC2)c2c(C)c(C)c(=O)oc2c1`, the IC50 is reported as > 80 µM (inactive).
`CCOc1ccc(/C=C2\SC(=S)N(CCCC(=O)NCCCN3CCOCC3)C2=O)cc1` gave an IC50 of 0.52 µM.
Work on `COC(=O)[C@@H]1Cc2c([nH]c3ccccc23)C(C)(C)N1C(=O)CCl` yielded an IC50 of 1.73 µM.
In the case of `CC(C)(C)c1ccc(-c2noc(CCC(=O)NCc3ccco3)n2)cc1`, the IC50 is reported as 1.13 µM.
For `COC(=O)C(C)Oc1cc(C)cc2oc(=O)c3c(c12)CCC3` (stereo not drawn), the IC50 was 49.9 µM (inactive).
`O=C(Nc1ccc(NC(=O)c2cc3ccccc3o2)cc1)c1ccc2c(c1)OCCO2` was tested, and the IC50 was > 80 µM (inactive).
With `NC(=O)C1CCN(C(=O)COc2ccc3ccccc3c2Br)CC1` the IC50 was > 80 µM (inactive).
In the case of `CCc1cccc(NC(=O)c2ccc(CNc3c(N4CCCC4)c(=O)c3=O)cc2)c1`, the IC50 is reported as > 80 µM (inactive).
`C=CCOc1ccccc1CN(C(=O)CCl)c1ccc2c(c1)OCO2` showed an IC50 of 1.7 µM.
For `Cc1cc(NC(=O)CCCN2C(=O)/C(=C/c3ccccc3Cl)SC2=S)no1`, the IC50 was 20.4 µM (inactive).
In the case of `COc1ccc(C(=O)Nc2cccc(NC(=O)c3ccc(OC)c(OC)c3)n2)cc1OC`, the IC50 is reported as 9.7 µM.
With `CCOC(=O)/C=C(\C)Sc1cc(=O)oc2ccccc12` the IC50 was 4 µM.
In the case of `O=C(CCCN1C(=O)/C(=C/c2ccccc2Cl)SC1=S)NNC(=O)c1ccccc1Cl`, the IC50 is reported as 1.76 µM.
`CCN(CC)c1ccc(/C=N/N=C(c2ccccc2)c2ccccc2)c(O)c1` was tested, and the IC50 was > 80 µM (inactive).
`CCOc1cc(/C=N\Nc2nc(Nc3ccccc3)nc(N3CCOCC3)n2)ccc1OC(=O)c1ccco1` was tested, and the IC50 was > 80 µM (inactive).
`CC1Cc2ccccc2N1S(=O)(=O)c1cnc(Cl)c(Br)c1` (stereo not drawn) was tested, and the IC50 was 27.2 µM (inactive).
For `CCN(CC)CCOC(=O)c1ccc(NC(=O)COc2cc(=O)n(CC)c3ccccc23)cc1`, the IC50 was 43.8 µM (inactive).
In the case of `CCN(CC)CCCN=Cc1c(-c2ccccc2)[nH]n(-c2nc3ccccc3s2)c1=O`, the IC50 is reported as 7.55 µM.
With `COc1cc(Br)c(C(=O)c2nccc3cc(OC)c(OC)cc23)cc1OC` the IC50 was > 80 µM (inactive).
`CCOc1ccc(NC(=O)CCCc2cc(-c3ccc(OCC)cc3)on2)cc1` was tested, and the IC50 was > 80 µM (inactive).
Compound `N#Cc1ccccc1COc1ccc(/C=C/C(=O)O)cc1` has an IC50 of 1.48 µM.
`COc1ccc(-c2ccc(N(C)C)cc2)cc1[C@H]1[C@H]2C=CC[C@@H](C)[C@@H]2C(=O)N1Cc1ccccc1` was tested, and the IC50 was > 80 µM (inactive).
`COc1cc(C(=O)Nc2cc(C)c(OCC(=O)N3CCOCC3)c(C)c2)cc(OC)c1OC` was tested, and the IC50 was > 80 µM (inactive).
With `COc1ccc(/C=N\NC(=O)c2sccc2C)cc1Cn1nc(C)cc1C` the IC50 was > 80 µM (inactive).
`COc1ccc(/C=C2\SC(=S)N(CCC(=O)Nc3ccc(C(=O)O)cc3)C2=O)cc1OC` was tested, and the IC50 was > 80 µM (inactive).
`COc1cc(NC(=O)c2cc3c(C)nc4ccccc4c3o2)cc(OC)c1OC` was tested, and the IC50 was > 80 µM (inactive).
`Cc1cc(C)cc(NC(=O)c2nnn(Cc3cc(C)ccc3C)c2N)c1` was tested, and the IC50 was > 80 µM (inactive).
For `CCN(CC(=O)Nc1c(F)cccc1F)C(=O)c1cc(S(=O)(=O)N(CC)CC)ccc1N1CCCCC1`, the IC50 was > 80 µM (inactive).
`CCOC(=O)Cc1csc(NC(=S)NC(=O)c2ccc(C)cc2)n1` was tested, and the IC50 was 0.72 µM.
In the case of `CC1=CC(C)(C)Nc2ccc(OC(=O)C(Cc3ccccc3)N3C(=O)c4ccccc4C3=O)cc21` (stereo not drawn), the IC50 is reported as 7.32 µM.
For `Cc1ccc2nc(NC(=O)CSCC(=O)OCC(=O)c3ccc(Br)cc3)sc2c1`, the IC50 was 0.33 µM.
In the case of `Cc1ccc(S(=O)(=O)N2CCCCC2CCNC(=O)C(=O)NCc2ccncc2)cc1` (stereo not drawn), the IC50 is reported as > 80 µM (inactive).
For `Cc1ccc(S(=O)(=O)CC2CSc3nc4ccccc4n32)cc1` (stereo not drawn), the IC50 was > 80 µM (inactive).
With `CCOc1ccc(-c2nc(CSCC(=O)NCc3ccco3)c(C)o2)cc1` the IC50 was 64 µM (inactive).
In the case of `CCOC(=O)C1CCN(c2ncnc3c2cnn3-c2ccc(Cl)cc2)CC1`, the IC50 is reported as 0.39 µM.
For `CCCCCC/C=C/c1ccc(OC)c([C@H]2[C@H]3C=CC[C@@H](C)[C@@H]3C(=O)N2Cc2ccccc2)c1`, the IC50 was > 80 µM (inactive).
